Like-named read-outs stand apart in the source and are kept apart here. Ends that are not written are not given here.
Key:
GalNAc-T4 = biological target: T1, GalNAc-T4 (Homo sapiens, UniProt Q8N4A0); assay: GalNAc-transferase assay with purified recombinant GalNAc-T4; type: biochemical
T1 construct: made in house; host or cells: High Five insect cells (baculovirus, pAcGP67 vector)
Description: (§1) In the examples, GalNAc-transferase assays were performed in 50 μl total reaction mixtures containing 25 mM cacodylate (pH 7.5), 10 mM MnCl2, 0.1-0.25% Triton X-100, 150-200 μM UDP-[^14C]-GalNAc (4,000 cpm/nmole) (Amersham) and 0.06-1 mM acceptor peptides. Peptides were either synthesized or obtained from Carlbiotech (Copenhagen), or Neosystems (Strasbourg), and quality was ascertained by amino acid analysis and mass spectrometry. Peptides Muc-1a, Muc-1b, and TAP24, were derived from the tandem repeat of human MUC1, Gendler et al., J. Biol. Chem. 265:15286 (1990), and Muc2, Muc5AC, and Muc7 from the tandem repeats of MUC2, MUC5AC, and MUC7, respectively. Gum et al., J. Biol. Chem. 264:6480 (1989); Porchet et al., Biochem. Soc. Trans. 23:800 (1995); Bobek et al., J. Biol. Chem. 268:20563 (1993). GalNAc4TAP24 was produced by in vitro glycosylation using GalNAc-T2 as described in Wandall et al., J. Biol. Chem. 272:23503 (1997). Products were quantified by scintillation counting after chromatography on Dowex-1, octadecyl silica cartridges (Bakerbond), or HPLC (PC3.2/3 or mRPC C2/C18 SC2.1/10 Pharmacia, Smart System). Products produced by in vitro glycosylation were in most cases also confirmed by mass spectrometry.
In this example, GalNAc-T4 was expressed in Sf9 insect cells. Expression constructs designed to contain amino acid residues 32-578 of the coding sequence of the putative GalNAc-T4 gene shown in SEQ ID NO:1 prepared by genomic PCR of two clones containing GalNAc-T4 (described in Bennett et al. (1998), supra) were cloned into a BamHI site of the expression vector pAcGP67 (Pharmingen), and the expression construct was sequenced. The constructs pAcGP67-GalNAc-T4506Vsol and pAcGP67-GalNAc-T4506 I sol, were designed to yield a putative soluble form of the GalNAc-T4 protein with an N-terminal end positioned immediately C-terminal to a potential transmembrane domain and including the entire sequence expected to contain the catalytic domain. […] Res. Comm. 211:347 (1995).
The activities presented in Table I were obtained with purified GalNAc-T4 and -T2, and are expressed as mU/mg (the concentration of enzyme protein estimated by SDS-PAGE using BSA as standard).

GalNAc-T3 [1] = biological target: T2, GalNAc-T3 (Homo sapiens, UniProt Q14435); settings: donor substrate; data from Wandall et al.; cited from earlier work
T2 construct: Control constructs pAcGP67-GalNAc-T1-sol, pAcGP67-GalNAc-T2-sol, pAcGP67-GalNAc-T3-sol, and pAcGP67-O^2-sol were prepared as previously described; made in house; host or cells: insect cells (baculovirus, pAcGP67)
T2 sequence (Q14435 38-633 limits assumed): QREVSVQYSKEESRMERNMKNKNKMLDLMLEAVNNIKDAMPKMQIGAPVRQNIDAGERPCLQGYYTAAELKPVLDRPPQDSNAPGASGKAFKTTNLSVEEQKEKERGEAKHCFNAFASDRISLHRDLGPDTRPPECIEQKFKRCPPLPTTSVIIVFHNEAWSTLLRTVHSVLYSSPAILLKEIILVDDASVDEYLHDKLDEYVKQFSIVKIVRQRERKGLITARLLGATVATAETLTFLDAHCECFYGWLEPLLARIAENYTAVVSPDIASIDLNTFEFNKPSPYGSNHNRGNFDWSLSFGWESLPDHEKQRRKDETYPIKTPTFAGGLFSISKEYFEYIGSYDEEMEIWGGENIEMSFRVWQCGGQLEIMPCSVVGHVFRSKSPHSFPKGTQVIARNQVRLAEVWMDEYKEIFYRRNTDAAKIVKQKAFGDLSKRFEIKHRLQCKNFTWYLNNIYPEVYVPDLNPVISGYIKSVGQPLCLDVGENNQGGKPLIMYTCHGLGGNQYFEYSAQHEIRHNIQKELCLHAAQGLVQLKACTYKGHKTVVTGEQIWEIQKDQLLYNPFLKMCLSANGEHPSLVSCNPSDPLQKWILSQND

GalNAc-T2 [2] = biological target: T3, GalNAc-T2 (Homo sapiens, UniProt Q10471); settings: donor substrate; data from Wandall et al.; cited from earlier work
T3 construct: Control constructs pAcGP67-GalNAc-T1-sol, pAcGP67-GalNAc-T2-sol, pAcGP67-GalNAc-T3-sol, and pAcGP67-O^2-sol were prepared as previously described; made in house; host or cells: insect cells (baculovirus, pAcGP67)

GalNAc-T1 [3] = biological target: T4, GalNAc-T1 (Homo sapiens, UniProt Q10472); settings: donor substrate; data from Wandall et al.; cited from earlier work
T4 construct: Control constructs pAcGP67-GalNAc-T1-sol, pAcGP67-GalNAc-T2-sol, pAcGP67-GalNAc-T3-sol, and pAcGP67-O^2-sol were prepared as previously described; made in house; host or cells: insect cells (baculovirus, pAcGP67)
T4 sequence (Q10472 41-559 limits assumed): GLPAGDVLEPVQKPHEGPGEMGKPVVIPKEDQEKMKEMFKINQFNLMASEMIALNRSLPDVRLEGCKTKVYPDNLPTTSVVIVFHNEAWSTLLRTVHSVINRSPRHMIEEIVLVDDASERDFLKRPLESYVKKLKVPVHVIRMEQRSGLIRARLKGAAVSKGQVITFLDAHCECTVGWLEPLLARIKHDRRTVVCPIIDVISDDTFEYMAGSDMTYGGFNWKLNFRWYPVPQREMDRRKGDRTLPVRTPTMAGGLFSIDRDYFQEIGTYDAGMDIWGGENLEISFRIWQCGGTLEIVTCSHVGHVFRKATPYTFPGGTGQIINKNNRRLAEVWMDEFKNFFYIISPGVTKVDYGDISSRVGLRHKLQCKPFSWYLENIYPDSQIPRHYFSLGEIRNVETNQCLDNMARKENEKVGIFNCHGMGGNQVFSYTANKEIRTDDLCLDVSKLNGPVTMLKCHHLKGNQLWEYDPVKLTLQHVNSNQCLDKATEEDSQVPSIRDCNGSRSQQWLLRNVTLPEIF

GalNAc-T2 [4] = biological target: T3, GalNAc-T2; assay: GalNAc-transferase assay with purified recombinant GalNAc-T2; type: biochemical
Description: as §1, with “The following examples are provided to illustrate certain preferred embodiments of the invention, and should be considered as illustration and not as limitation. In” for “In”
(§2) In this example, GalNAc-T4 was expressed in Sf9 insect cells. Expression constructs designed to contain amino acid residues 32-578 of the coding sequence of the putative GalNAc-T4 gene shown in SEQ ID NO:1 prepared by genomic PCR of two clones containing GalNAc-T4 (described in Bennett et al. (1998), supra) were cloned into a BamHI site of the expression vector pAcGP67 (Pharmingen), and the expression construct was sequenced. The constructs pAcGP67-GalNAc-T4506Vsol and pAcGP67-GalNAc-T4506 I sol, were designed to yield a putative soluble form of the GalNAc-T4 protein with an N-terminal end positioned immediately C-terminal to a potential transmembrane domain and including the entire sequence expected to contain the catalytic domain. Control constructs pAcGP67-GalNAc-T1-sol, pAcGP67-GalNAc-T2-sol, pAcGP67-GalNAc-T3-sol, and pAcGP67-O^2-sol were prepared as previously described in White et al., J. Biol. Chem 270:24156 (1995); Bennett et al., J. Biol. Chem. 271:17006 (1996); and Bennett et al., Biochem. Biophys. Res. Comm. 211:347 (1995).
Activities measured with the mucin derived substrates, Muc7, EA2, and Muc2 (see Table I for structures and SEQ ID NOs:19, 25 and 18, respectively), were only 2-7 fold over background values. Very low activities with a few other substrates were also observed, but for many of the “mucin-like” substrates a relative high background with Sf9 cells infected with irrelevant constructs made assessment difficult. GalNAc-T4 was expressed in High Five cells and purified to near homogeneity, however, very low endogenous activity was detected with some substrates in the same fractions when medium from cells infected with irrelevant expression constructs were used in the same purification strategy. The activities presented in Table I were obtained with purified GalNAc-T4 and -T2, and are expressed as mU/mg (the concentration of enzyme protein estimated by SDS-PAGE using BSA as standard). The highest activities with GalNAc-T4 were found from assays of Sf9 medium with the mucin peptides Muc7, EA2, and Muc2, however, the efficiencies with these substrates were considerably lower than GalNAc-T2.

GalNAc-T3 [5] = biological target: T2, GalNAc-T3; assay: GalNAc-transferase assay with purified recombinant GalNAc-T3; type: biochemical
Description: as §1, with “The following examples are provided to illustrate certain preferred embodiments of the invention, and should be considered as illustration and not as limitation. In” for “In”
as §2

GalNAc-T1 [6] = biological target: T4, GalNAc-T1; assay: GalNAc-transferase assay with purified recombinant GalNAc-T1; type: biochemical; settings: acceptor substrate
Description: as §1, with “The following examples are provided to illustrate certain preferred embodiments of the invention, and should be considered as illustration and not as limitation. In” for “In”
In this example, GalNAc-T4 was expressed in Sf9 insect cells. Expression constructs designed to contain amino acid residues 32-578 of the coding sequence of the putative GalNAc-T4 gene shown in SEQ ID NO:1 prepared by genomic PCR of two clones containing GalNAc-T4 (described in Bennett et al. (1998), supra) were cloned into a BamHI site of the expression vector pAcGP67 (Pharmingen), and the expression construct was sequenced. […]

Molecule: CC(=O)N[C@H]1[C@@H](OP(=O)(O)OP(=O)(O)OC[C@H]2O[C@@H](n3ccc(=O)[nH]c3=O)[C@H](O)[C@@H]2O)O[C@H](CO)[C@H](O)[C@@H]1O [UDP-GalNAc, UDP-N-acetylgalactosamine]
- Km (GalNAc-T4; donor substrate, saturating concentration of Muc7 as substrate, read-out: Km GalNAc-T4): 160 µM
- Km (GalNAc-T4; using the Muc7 acceptor substrate, read-out: Km of purified GalNAc-T4 for UDP-GalNAc): 160 µM
- Km (GalNAc-T3 [1]): 29 µM
- Km (GalNAc-T2 [2]): 10 µM
- Km (GalNAc-T1 [3]): 62 µM

Molecule: CC(=O)N[C@H]1[C@@H](OP(=O)(O)OP(=O)(O)OC[C@H]2O[C@@H](n3ccc(=O)[nH]c3=O)[C@H](O)[C@@H]2O)O[C@H](CO)[C@@H](O)[C@@H]1O [UDP-GlcNAc]
- incorporation with alternative donor substrate (GalNAc-T4; Muc7 acceptor peptide): No incorporation

Molecule: AHGVTSAPDTR [Muc1a′, peptide derived from the tandem repeat of human MUC1]
- GalNAc-T4 activity with acceptor peptide (GalNAc-T4; 0.25 mM peptide in 50-μl assay): 2 ± 0.4 milliunits/mg
- GalNAc-T4 activity with acceptor peptide (GalNAc-T4; 1 mM peptide in 50-μl assay): 6.7 ± 1 milliunits/mg
- GalNAc-T4 activity with substrate (in words) (GalNAc-T4; purified GalNAc-T4): somewhat poor activities
- GalNAc-T2 activity with acceptor peptide (GalNAc-T2 [4]; 0.25 mM peptide in 50-μl assay): 28 ± 5 milliunits/mg
- GalNAc-T2 activity with acceptor peptide (GalNAc-T2 [4]; 1 mM peptide in 50-μl assay): 83 ± 2 milliunits/mg
- specific activity of GalNAc-T3 (GalNAc-T3 [5]; with Muc1a): 0.5 U/mg

Molecule: Ac-QATEYEYLDYDFLPETEPPEM [PSGL-1b]
- Km (GalNAc-T1 [6]): > 2000 µM
- Km (GalNAc-T2 [4]; acceptor substrate): > 2000 µM
- Km (GalNAc-T3 [5]; acceptor substrate): > 2000 µM

From patent US6465220B1, “Glycosylation using GalNac-T4 transferase” (GlycoZym ApS, priority 1998, dated 2002)
